Data on 16 compounds can be found in patent publication US10829473B2, “Modulators of the cystic fibrosis transmembrane conductance regulator protein and methods of use” (AbbVie Overseas S.Á.R.L., priority 2017, dated 2020).

The EC50 is the midpoint of the concentration-response curve.

This test concerns the target T1, F508delCFTR (Homo sapiens, UniProt P13569, DEL508-508).
T1 construct: expressed in transfected cells; host or cells: CFBE41o- human lung derived epithelial cells (CFBE41o-F508delCFTR-HRP), doxycycline-inducible
Description: Cell Surface Expression-Horse Radish Peroxidase (CSE-HRP) Assay.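 On EC50 (with co-corrector): co-corrector chromenyl benzoic acid corrector at 2 or 3 µM.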 The test is classed as cell-based. As to conditions: for Maximum % activity (with co-corrector) / Emax: maximum at any tested concentration; for Emax: read-out: Maximum % activity (without co-corrector). As for the experimental part:
A cellular assay for measuring the F508delCFTR cell surface expression after correction with test compounds either without or with a co-corrector (2 μM of 3-[(2R,4R)-4-({[1-(2,2-difluoro-1,3-benzodioxol-5-yl)cyclopropyl]carbonyl}amino)-7-methoxy-3,4-dihydro-2H-chromen-2-yl]benzoic acid), was developed in human lung derived epithelial cell line (CFBE4lo−) (Veit G et al, (2012) Mol Biol Cell. 23(21): 4188-4202). The development was achieved by expressing the F508delCFTR mutation along with a horseradish peroxidase (HRP) in the fourth exofacial loop, and then measuring the HRP activity using luminescence readout from these cells, CFBE410-F508delCFTR-HRP, that were incubated overnight with the test corrector compounds, either without or with the co-corrector. For this primary assay, the CFBE410-F508delCFTR-HRP cells were plated in 384-well plates (Greiner Bio-one; Cat 781080) at 4,000 cells/well along with 0.5 μg/mL doxycycline to induce the F508delCFTR-HRP expression and further incubated at 37° C., 5% CO2 for 68-72 hours. The test compounds were then added either without or with a co-corrector at the required concentrations and further incubated for 18-24 hours at 33° C. The highest concentration tested was 20 μM or 30 μM (GI-1 to GIII-36) with an 8-point concentration response curve using a 3-fold dilution in both the test compound without or with the co-corrector. Three replicate plates were run to determine one EC50. All plates contained negative controls (dimethyl sulfoxide, DMSO) and positive control (2 μM or 3 μM (GI-1 to GIII-36) of 3-[(2R,4R)-4-({[1-(2,2-difluoro-1,3-benzodioxol-5-yl)cyclopropyl]carbonyl}amino)-7-methoxy-3,4-dihydro-2H-chromen-2-yl]benzoic acid) as well as on-plate concentration response of the positive control. Post incubation, the plates were washed 5× times with Dulbecco's phosphate buffered saline (DPBS), followed by the addition of the HRP substrate, luminol (50 4), and measuring the HRP activity using luminescence readout on EnVision® Multilabel Plate Reader (Perkin Elmer; product number 2104-0010). The raw counts from the experiment were analyzed using Accelrys® Assay Explorer v3.3.
Z′ greater than 0.5 was used as passing quality control criteria for the plates.
The Z′ is defined as: 1−[3*SDPositve Control+3*SDNegative Control/Absolute(MeanPositive Control−MeanNegative Control)] wherein “SD” is standard deviation.
The % activity measured at each of the 8 test concentrations of the test compound added either without or with a co-corrector (2 μM or 3 μM (GI-1 to GIII-36) of 3-[(2R,4R)-4-({[1-(2,2-difluoro-1,3-benzodioxol-5-yl)cyclopropyl]carbonyl}amino)-7-methoxy-3,4-dihydro-2H-chromen-2-yl]benzoic acid) was normalized to the on-plate positive control using the following formulae: % activity (Test compound without co-corrector)=[(test compound without co-corrector response DMSO response)/(positive control response DMSO response)]*100 % activity (Test compound with co-corrector)=[(test compound with co-corrector response DMSO response)/(positive control response DMSO response)]*100
The maximum % activity achieved for the test compound either without or with a co-corrector at any tested concentration is presented in Table 6 along with the respective EC50's calculated using the following general sigmoidal curve with variable Hill slope equation (described as Model 42 in the Accelrys® Assay Explorer v3.3 software): y=(a−d)/(1+(x/c)b)+d
General sigmoidal curve with concentration, response, top, bottom, EC50 and Hill slope. This model describes a sigmoidal curve with an adjustable baseline, a. The equation can be used to fit curves where response is either increasing or decreasing with respect to the independent variable, “x”.
“x” is a concentration of drug under test.
“a” is the maximum response, and “d” is the minimum response
“c” is the inflection point (EGO for the curve. That is, “y” is halfway between the lower and upper asymptotes when x=c.
“b” is the slope-factor or Hill coefficient. […]

Setting [1] is: test compound with co-corrector.
The mark [2] stands for this setting: test compound with co-corrector, read-out: EC50 (with co-corrector).
Where [3] appears, read: test compound without co-corrector.
Where [4] appears, read: test compound without co-corrector, read-out: EC50 (without co-corrector).

Where two headings read alike, the source gives them in different places.

T1 sequence (P13569 with tags, fused parts or gaps DEL508-508): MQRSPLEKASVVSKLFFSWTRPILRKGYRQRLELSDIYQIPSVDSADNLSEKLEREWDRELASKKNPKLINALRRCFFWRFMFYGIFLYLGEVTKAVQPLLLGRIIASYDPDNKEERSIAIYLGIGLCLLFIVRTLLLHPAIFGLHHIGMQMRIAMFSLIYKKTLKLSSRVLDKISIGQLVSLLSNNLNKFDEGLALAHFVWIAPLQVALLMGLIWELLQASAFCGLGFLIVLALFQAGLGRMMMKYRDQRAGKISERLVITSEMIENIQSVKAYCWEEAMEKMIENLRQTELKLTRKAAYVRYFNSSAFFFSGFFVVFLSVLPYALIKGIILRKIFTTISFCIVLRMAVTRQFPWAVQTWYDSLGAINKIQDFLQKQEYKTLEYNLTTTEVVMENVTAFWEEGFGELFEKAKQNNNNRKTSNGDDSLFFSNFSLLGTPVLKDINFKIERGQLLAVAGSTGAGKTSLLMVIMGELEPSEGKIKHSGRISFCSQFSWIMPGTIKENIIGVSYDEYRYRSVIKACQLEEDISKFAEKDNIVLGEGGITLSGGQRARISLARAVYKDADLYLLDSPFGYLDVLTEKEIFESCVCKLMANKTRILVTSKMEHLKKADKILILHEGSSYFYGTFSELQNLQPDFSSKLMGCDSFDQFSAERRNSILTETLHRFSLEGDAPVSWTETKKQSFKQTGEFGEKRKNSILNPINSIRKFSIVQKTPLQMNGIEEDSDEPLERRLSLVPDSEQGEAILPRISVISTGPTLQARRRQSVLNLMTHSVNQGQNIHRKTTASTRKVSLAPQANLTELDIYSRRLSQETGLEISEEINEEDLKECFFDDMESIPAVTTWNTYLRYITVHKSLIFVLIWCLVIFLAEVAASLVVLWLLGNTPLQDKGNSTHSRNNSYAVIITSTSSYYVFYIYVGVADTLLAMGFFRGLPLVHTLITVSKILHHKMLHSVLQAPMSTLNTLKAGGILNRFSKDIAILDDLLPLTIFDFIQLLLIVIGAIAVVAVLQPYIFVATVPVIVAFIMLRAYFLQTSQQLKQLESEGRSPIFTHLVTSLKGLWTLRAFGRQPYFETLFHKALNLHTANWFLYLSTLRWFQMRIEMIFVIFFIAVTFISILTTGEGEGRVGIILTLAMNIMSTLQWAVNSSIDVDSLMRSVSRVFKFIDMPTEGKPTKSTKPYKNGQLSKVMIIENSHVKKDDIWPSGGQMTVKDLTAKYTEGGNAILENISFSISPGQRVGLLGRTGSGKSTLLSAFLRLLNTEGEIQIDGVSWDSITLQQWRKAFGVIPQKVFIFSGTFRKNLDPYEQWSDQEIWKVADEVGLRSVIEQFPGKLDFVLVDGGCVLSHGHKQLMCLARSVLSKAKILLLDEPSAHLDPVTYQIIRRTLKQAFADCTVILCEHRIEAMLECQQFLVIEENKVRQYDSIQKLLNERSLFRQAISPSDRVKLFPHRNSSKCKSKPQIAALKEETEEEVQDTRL

Take `CC(C)COc1ncc(C2CC2)cc1C1(C(=O)NS(=O)(=O)c2cccc3ncccc23)CC1` [Example GI-48, 1-[5-cyclopropyl-2-(2-methylpropoxy)pyridin-3-yl]-N-(quinoline-5-sulfonyl)cyclopropane-1-carboxamide]: the “Maximum % activity (with co-corrector)” value under setting [1] is given as “+++ (≥350)”. The EC50 is, setting by setting: under setting [2], < 3 µM; under setting [4], < 3 µM. Also, under setting [3], the Emax was > 150%.
With `Cc1ccc2c(S(=O)(=O)NC(=O)C3(c4cc(C5CC5)cnc4OCC(C)C)CC3)cccc2n1` [Example GI-49, 1-[5-cyclopropyl-2-(2-methylpropoxy)pyridin-3-yl]-N-(2-methylquinoline-5-sulfonyl)cyclopropane-1-carboxamide], the “Maximum % activity (with co-corrector)” value under setting [1] is listed as “+++ (≥350)”. The concentration giving a half-maximal response (EC50) under setting [2] is < 3 µM and the 50% effective concentration (EC50) under setting [4] is < 3 µM. In addition, the Emax under setting [3] was > 150%.
With `CC(C)COc1ncc(C2CC2)cc1C1(C(=O)NS(=O)(=O)c2cccc3[nH]ccc23)CC1` [Example GI-50, 1-[5-cyclopropyl-2-(2-methylpropoxy)pyridin-3-yl]-N-(1H-indole-4-sulfonyl)cyclopropane-1-carboxamide], under setting [1], the “Maximum % activity (with co-corrector)” value is reported as “+++ (≥350)”. Moreover, the EC50 under setting [2] was < 3 µM and the EC50 under setting [4] is < 3 µM. Under setting [3], the Emax was > 150%.
For the compound `CC(C)COc1ncc(C2CCC2)cc1C1(C(=O)NS(=O)(=O)c2cccc3ncccc23)CC1` [Example GI-51, 1-[5-cyclobutyl-2-(2-methylpropoxy)pyridin-3-yl]-N-(quinoline-5-sulfonyl)cyclopropane-1-carboxamide], the “Maximum % activity (with co-corrector)” value under setting [1] is on record as “+++ (≥350)”. Further, the EC50 reads like this: under setting [2], < 3 µM; under setting [4], < 3 µM. The Emax under setting [3] is > 150%.
For the compound `CC(C)COc1ncc(C2CCC2)cc1C1(C(=O)NS(=O)(=O)c2cccc3[nH]ccc23)CC1` [Example GI-52, 1-[5-cyclobutyl-2-(2-methylpropoxy)pyridin-3-yl]-N-(1H-indole-4-sulfonyl)cyclopropane-1-carboxamide], the “Maximum % activity (with co-corrector)” value under setting [1] is recorded as “+++ (≥350)”. Also, the EC50 was < 3 µM under setting [2] and < 3 µM under setting [4]. Moreover, under setting [3], the Emax is > 150%.
For `Cc1ccc2c(S(=O)(=O)NC(=O)C3(c4cc(C5CCC5)cnc4OCC(C)C)CC3)cccc2n1` [Example GI-53, 1-[5-cyclobutyl-2-(2-methylpropoxy)pyridin-3-yl]-N-(2-methylquinoline-5-sulfonyl)cyclopropane-1-carboxamide], under setting [1], the “Maximum % activity (with co-corrector)” value is reported as “+++ (≥350)”. Also, the EC50 by setting is: under setting [2], < 3 µM; under setting [4], < 3 µM. The Emax under setting [3] is > 150%.
Regarding `CCc1ccc(OC(C)C)c(C2(C(=O)NS(=O)(=O)c3cccc4nc(C)ccc34)CC2)n1` [Example GI-54, 1-{6-ethyl-3-[(propan-2-yl)oxy]pyridin-2-yl}-N-(2-methylquinoline-5-sulfonyl)cyclopropane-1-carboxamide], the “Maximum % activity (with co-corrector)” value under setting [1] is “+++ (≥350)”. For the same compound, the concentration giving a half-maximal response (EC50) is, setting by setting: under setting [2], 3 to 10 µM; under setting [4], 3 to 10 µM. For the same compound, under setting [3], the Emax was > 150%.
For the compound `CCc1ccc(OC(C)C)c(C2(C(=O)NS(=O)(=O)c3cccc4ncccc34)CC2)n1` [Example GI-55, 1-{6-ethyl-3-[(propan-2-yl)oxy]pyridin-2-yl}-N-(quinoline-5-sulfonyl)cyclopropane-1-carboxamide], under setting [1], the “Maximum % activity (with co-corrector)” value was “+++ (≥350)”. Besides, the EC50 is < 3 µM under setting [2] and 3 to 10 µM under setting [4]. Moreover, under setting [3], the Emax is > 150%.
For the compound `CCc1ccc(OC(C)C)c(C2(C(=O)NS(=O)(=O)c3cccc4[nH]ccc34)CC2)n1` [Example GI-56, 1-{6-ethyl-3-[(propan-2-yl)oxy]pyridin-2-yl}-N-(1H-indole-4-sulfonyl)cyclopropane-1-carboxamide], the “Maximum % activity (with co-corrector)” value under setting [1] is given as “+++ (≥350)”. In addition, the EC50 reads like this: under setting [2], < 3 µM; under setting [4], 3 to 10 µM. For the same compound, the Emax under setting [3] was > 150%.
As for `COC1CCN(c2ncc(C3CCC3)cc2C2(C(=O)NS(=O)(=O)c3cccc4[nH]ccc34)CC2)CC1` [Example GI-57, 1-[5-cyclobutyl-2-(4-methoxypiperidin-1-yl)pyridin-3-yl]-N-(1H-indole-4-sulfonyl)cyclopropane-1-carboxamide], the “Maximum % activity (with co-corrector)” value under setting [1] is “+++ (≥350)”. Moreover, the EC50 is < 3 µM under setting [2] and < 3 µM under setting [4]. Moreover, under setting [3], the Emax is > 150%.
For `Cc1cnc(OC(C)C)c(C2(C(=O)NS(=O)(=O)c3cccc4nc(C)ccc34)CC2)c1` [Example GI-58, 1-{5-methyl-2-[(propan-2-yl)oxy]pyridin-3-yl}-N-(2-methylquinoline-5-sulfonyl)cyclopropane-1-carboxamide], the “Maximum % activity (with co-corrector)” value under setting [1] is reported as “+++ (≥350)”. Also, the EC50 was < 3 µM under setting [2] and < 3 µM under setting [4]. For the same compound, the Emax under setting [3] was > 150%.
With `Cc1cnc(OC(C)C)c(C2(C(=O)NS(=O)(=O)c3cccc4[nH]ccc34)CC2)c1` [Example GI-59, N-(1H-indole-4-sulfonyl)-1-{5-methyl-2-[(propan-2-yl)oxy]pyridin-3-yl}cyclopropane-1-carboxamide], the “Maximum % activity (with co-corrector)” value under setting [1] is listed as “+++ (≥350)”. For the same compound, the concentration giving a half-maximal response (EC50) runs as follows: under setting [2], < 3 µM; under setting [4], 3 to 10 µM. The Emax under setting [3] is > 150%.
On the same counts, the results for `Cc1ccc2c(S(=O)(=O)NC(=O)C3(c4cc(C5CC5)cnc4OC(C)C)CC3)cccc2n1` [Example GI-60, 1-{5-cyclopropyl-2-[(propan-2-yl)oxy]pyridin-3-yl}-N-(2-methylquinoline-5-sulfonyl)cyclopropane-1-carboxamide] are “+++ (≥350)”, < 3 µM, < 3 µM and > 150%.
On the same counts, the results for `CC(C)Oc1ncc(C2CC2)cc1C1(C(=O)NS(=O)(=O)c2cccc3[nH]ccc23)CC1` [Example GI-61, 1-{5-cyclopropyl-2-[(propan-2-yl)oxy]pyridin-3-yl}-N-(1H-indole-4-sulfonyl)cyclopropane-1-carboxamide] are “+++ (≥350)”, < 3 µM, < 3 µM and > 150%.
Take `CC(C)Oc1ncc(N2CCCC2)cc1C1(C(=O)NS(=O)(=O)c2cccc3ncccc23)CC1` [Example GI-62, 1-{2-[(propan-2-yl)oxy]-5-(pyrrolidin-1-yl)pyridin-3-yl}-N-(quinoline-5-sulfonyl)cyclopropane-1-carboxamide]: the “Maximum % activity (with co-corrector)” value under setting [1] was “+++ (≥350)”. Further, the EC50 is < 3 µM under setting [2] and < 3 µM under setting [4]. Also, the Emax under setting [3] is > 150%.
For the compound `Cc1ccc2c(S(=O)(=O)NC(=O)C3(c4cc(N5CCCC5)cnc4OC(C)C)CC3)cccc2n1` [Example GI-63, N-(2-methylquinoline-5-sulfonyl)-1-{2-[(propan-2-yl)oxy]-5-(pyrrolidin-1-yl)pyridin-3-yl}cyclopropane-1-carboxamide], under setting [1], the “Maximum % activity (with co-corrector)” value is reported as “+++ (≥350)”. For the same compound, the EC50 runs as follows: under setting [2], < 3 µM; under setting [4], < 3 µM. Further, the Emax under setting [3] was > 150%.
